According to patent US10258621B2, “Methods and compositions for treating HIV-related disorders” (CHDI Foundation, Inc., priority 2014, dated 2019):
“Also recorded” adds a separate entry of the source.

Assays:
KMO = target: T1, KMO (Homo sapiens, UniProt O15229); test: KMO inhibition: L-kynurenine hydroxylation to 3OH-KYN monitored by LC/MS; format: biochemical; conditions: 10 μM compound
T1 construct: GST; His; expressed in transfected cells; host or cells: CHO (CHO-GST HIS KMO cell line)
Description: A generalized procedure for monitoring L-Kynurenine (KYN) hydroxylation to form product 3-Hydroxy-Kynurenine (3OH—KYN) by LC/MS is described below. Product is quantified by multiple reaction monitoring using MS.
IC50's are calculated using automated fitting algorithm (A+ Analysis)
A method of monitoring L-Kynurenine (KYN) hydroxylation to form product 3-Hydroxy-Kynurenine (3OH—KYN) by LC/MS is described below. Product is quantified by multiple reaction monitoring.
• Compound: Stock concentrations: 10 mM in 100% DMSO • Enzyme: KMO enzyme prepared at Evotec via mitochondria isolation from CHO-GST HIS KMO cells • Substrate: L-Kynurenine (Sigma: Cat#K3750) • [stock concentration: 10 mM in 100 mM potassium phosphate buffer, pH 7.4]
IC50's are calculated using automated fitting algorithm (A+ Analysis).
A method of monitoring L-Kynurenine (KYN) hydroxylation to form 3-Hydroxy-Kynurenine (3OH—KYN) by LC/MS is described. Product is quantified by multiple reaction monitoring (MRM method).

[1] = tested on: KP metabolites (KYN, KYNA, AA, 3-HK) via KMO inhibition; test: Microdialysis after PO dosing at various dosage levels: KP metabolites in striatum extracellular space; format: in vivo; conditions: PO 3, 10 or 30 mg/kg; mouse striatum microdialysis
Description: (§1) Animals were anesthetized using isoflurane (2%, 800 mL/min O2). Bupivacain/epinephrine was used for local analgesia, finadyne or carprophen for peri-/post-operative analgesia. The animals were placed in a stereotaxic frame (Kopf instruments, USA). I-shaped probes (membrane: polyacrylonitrile, 3 mm exposed surface; Brainlink, the Netherlands) were inserted in the striatum. After surgery, animals were kept individually in cages; provided food and water ad libitum.
(§2) Experiments were performed one day after surgery. On the day of the experiment, the probes of the animals were connected with flexible PEEK tubing to a microperfusion pump (Harvard PHD 2000 Syringe pump, Holliston, Mass. or similar). The I-shaped microdialysis probes were perfused with aCSF containing 147 mM NaCl, 3.0 mM KCl, 1.2 mM CaCl2 and 1.2 mM MgCl2, at a flow rate of 1.5 μL/min. Microdialysis samples were collected at 20-minute intervals by an automated fraction collector (820 Microsampler, Univentor, Malta or similar) into mini-vials already containing 10 μL 0.02 M formic acid (FA) and 0.04% ascorbic acid in ultrapurified H2O. At t=−30 min vehicle or KMO inhibitor were be administered, to ensure central and peripheral inhibition of KMO at the time of administration of kynurenine. At t=0 vehicle or kynurenine were administered. Microdialysate samples were collected for 240 min after administration of kynurenine. All the dialysis samples were stored at −80° C. awaiting their analysis. Dialysate levels of any or all of KP metabolites KYN, KYNA, 3-OH—KYN, AA and QA were quantified by LC-MS/MS at by Brains On-Line. After the experiment, the mice were sacrificed and terminal brain (striatum+cortex), liver, kidney, plasma and CSF samples were collected for analysis of KP metabolites. Levels of KP metabolites were measured in terminal brain (striatum+cortex), liver, kidney, plasma and CSF samples at Brains On-Line. Finally, levels of kynurenine and KMO inhibitors in dose formulation samples were quantified by Brains On-Line.
A method of examining the modulation of KYN, KYNA, AA, and 3-HK via KMO inhibition with Compound 6 in striatum extracellular space is disclosed. […] Following the microdialysis procedure described herein, dialysate levels of KP metabolites KYN, KYNA, 3-HK, and AA were quantified by LC-MS/MS at by Brains On-Line.

[2] = tested on: extracellular levels of KYN, KYNA, 3-OH-KYN, AA and QA in the striatum; test: Microdialysis after PO dosing of kynurenine, Compound 6 or both: extracellular KP metabolites in striatum; format: in vivo, adult male WT mice; conditions: 30 mg/kg p.o., dosed alone; WT mice
Description: as §1, §2
A method of examining the pharmacodynamic effects of kynurenine (30 mg/kg, p.o.) and Compound 6 (30 mg/kg, p.o.) on extracellular levels of KYN, KYNA, 3-OH—KYN, AA and QA in the striatum (STR) of adult male WT mice either co-dosed or dosed independently is disclosed.
Furthermore, PO administration of Compound 6 blocks toxic metabolites 3-OH—KYN (see FIG. 10) and QA (see FIG. 11), whereas kynurenine dosing increases them, due to kynurenine catabolism in mice brain.

KP metabolite KYNA = test: Microdialysis after PO dosing in WT and HD (Q175_KI homozygous) animals: KYNA in striatum; format: in vivo, mouse; conditions: PO 3 mg/kg or 10 mg/kg
Description: as §1
Experiments were performed one day after surgery. On the day of the experiment, the probes of the animals were connected with flexible PEEK tubing to a microperfusion pump (Harvard PHD 2000 Syringe pump, Holliston, Mass. or similar). […] Dialysate levels of any or all of KP metabolites KYN, KYNA, 3-OH—KYN, AA and QA were quantified by LC-MS/MS at by Brains On-Line. […] Levels of KP metabolites were measured in terminal brain (striatum+cortex), liver, kidney, plasma and CSF samples at Brains On-Line. Finally, levels of kynurenine and KMO inhibitors in dose formulation samples were quantified by Brains On-Line.
A method of examining the modulation of KP metabolites in HD animals similar to WT controls is disclosed. […] Following the microdialysis procedure described herein, dialysate levels of KP metabolite KYNA was quantified by LC-MS/MS at by Brains On-Line. […]

[3] = target: NMDA receptor NR2A subunit (Homo sapiens, UniProt Q12879); conditions: NMDA receptor agonist; cited from earlier work
Sequence of NMDA receptor NR2A subunit (Q12879 23-1464, other chains not shown): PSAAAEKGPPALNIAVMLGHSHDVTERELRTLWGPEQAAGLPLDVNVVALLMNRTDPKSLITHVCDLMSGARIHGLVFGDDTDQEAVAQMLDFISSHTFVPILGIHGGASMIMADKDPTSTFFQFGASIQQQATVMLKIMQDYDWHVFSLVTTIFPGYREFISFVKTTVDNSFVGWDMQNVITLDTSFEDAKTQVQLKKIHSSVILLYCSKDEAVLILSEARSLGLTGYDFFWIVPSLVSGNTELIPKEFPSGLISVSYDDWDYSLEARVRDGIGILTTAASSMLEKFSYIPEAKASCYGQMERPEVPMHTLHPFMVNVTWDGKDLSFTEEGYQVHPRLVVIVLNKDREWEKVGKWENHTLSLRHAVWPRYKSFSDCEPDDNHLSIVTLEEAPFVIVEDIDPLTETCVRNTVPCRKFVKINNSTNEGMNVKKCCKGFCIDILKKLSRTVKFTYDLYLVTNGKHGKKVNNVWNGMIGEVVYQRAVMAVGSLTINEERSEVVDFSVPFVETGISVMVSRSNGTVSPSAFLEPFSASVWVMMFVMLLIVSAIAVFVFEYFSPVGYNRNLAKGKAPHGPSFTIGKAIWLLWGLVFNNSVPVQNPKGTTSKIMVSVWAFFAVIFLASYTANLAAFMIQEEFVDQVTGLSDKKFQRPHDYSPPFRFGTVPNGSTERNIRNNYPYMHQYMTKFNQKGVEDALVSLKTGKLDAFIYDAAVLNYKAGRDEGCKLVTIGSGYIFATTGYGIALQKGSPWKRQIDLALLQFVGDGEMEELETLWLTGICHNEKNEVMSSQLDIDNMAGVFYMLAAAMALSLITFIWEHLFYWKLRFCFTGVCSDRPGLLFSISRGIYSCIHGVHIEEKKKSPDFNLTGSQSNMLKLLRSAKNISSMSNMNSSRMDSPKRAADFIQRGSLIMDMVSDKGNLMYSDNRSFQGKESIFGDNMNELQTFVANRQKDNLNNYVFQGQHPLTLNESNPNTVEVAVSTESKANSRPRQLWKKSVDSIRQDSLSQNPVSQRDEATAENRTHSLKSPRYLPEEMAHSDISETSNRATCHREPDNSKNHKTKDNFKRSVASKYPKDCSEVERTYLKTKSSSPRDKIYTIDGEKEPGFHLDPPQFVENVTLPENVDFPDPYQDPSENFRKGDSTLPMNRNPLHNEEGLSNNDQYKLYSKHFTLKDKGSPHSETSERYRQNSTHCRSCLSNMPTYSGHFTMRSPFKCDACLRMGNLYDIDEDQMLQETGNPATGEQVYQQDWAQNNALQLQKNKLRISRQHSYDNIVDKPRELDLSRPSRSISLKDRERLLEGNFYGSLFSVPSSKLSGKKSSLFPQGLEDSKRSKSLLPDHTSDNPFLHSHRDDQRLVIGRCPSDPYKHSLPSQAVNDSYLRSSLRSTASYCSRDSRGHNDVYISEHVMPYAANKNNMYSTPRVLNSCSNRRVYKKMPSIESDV

[4] = target: NMDA receptor NR2B subunit (Homo sapiens, UniProt Q13224); conditions: NMDA receptor agonist; cited from earlier work
Sequence of NMDA receptor NR2B subunit (Q13224 27-1484, other chains not shown): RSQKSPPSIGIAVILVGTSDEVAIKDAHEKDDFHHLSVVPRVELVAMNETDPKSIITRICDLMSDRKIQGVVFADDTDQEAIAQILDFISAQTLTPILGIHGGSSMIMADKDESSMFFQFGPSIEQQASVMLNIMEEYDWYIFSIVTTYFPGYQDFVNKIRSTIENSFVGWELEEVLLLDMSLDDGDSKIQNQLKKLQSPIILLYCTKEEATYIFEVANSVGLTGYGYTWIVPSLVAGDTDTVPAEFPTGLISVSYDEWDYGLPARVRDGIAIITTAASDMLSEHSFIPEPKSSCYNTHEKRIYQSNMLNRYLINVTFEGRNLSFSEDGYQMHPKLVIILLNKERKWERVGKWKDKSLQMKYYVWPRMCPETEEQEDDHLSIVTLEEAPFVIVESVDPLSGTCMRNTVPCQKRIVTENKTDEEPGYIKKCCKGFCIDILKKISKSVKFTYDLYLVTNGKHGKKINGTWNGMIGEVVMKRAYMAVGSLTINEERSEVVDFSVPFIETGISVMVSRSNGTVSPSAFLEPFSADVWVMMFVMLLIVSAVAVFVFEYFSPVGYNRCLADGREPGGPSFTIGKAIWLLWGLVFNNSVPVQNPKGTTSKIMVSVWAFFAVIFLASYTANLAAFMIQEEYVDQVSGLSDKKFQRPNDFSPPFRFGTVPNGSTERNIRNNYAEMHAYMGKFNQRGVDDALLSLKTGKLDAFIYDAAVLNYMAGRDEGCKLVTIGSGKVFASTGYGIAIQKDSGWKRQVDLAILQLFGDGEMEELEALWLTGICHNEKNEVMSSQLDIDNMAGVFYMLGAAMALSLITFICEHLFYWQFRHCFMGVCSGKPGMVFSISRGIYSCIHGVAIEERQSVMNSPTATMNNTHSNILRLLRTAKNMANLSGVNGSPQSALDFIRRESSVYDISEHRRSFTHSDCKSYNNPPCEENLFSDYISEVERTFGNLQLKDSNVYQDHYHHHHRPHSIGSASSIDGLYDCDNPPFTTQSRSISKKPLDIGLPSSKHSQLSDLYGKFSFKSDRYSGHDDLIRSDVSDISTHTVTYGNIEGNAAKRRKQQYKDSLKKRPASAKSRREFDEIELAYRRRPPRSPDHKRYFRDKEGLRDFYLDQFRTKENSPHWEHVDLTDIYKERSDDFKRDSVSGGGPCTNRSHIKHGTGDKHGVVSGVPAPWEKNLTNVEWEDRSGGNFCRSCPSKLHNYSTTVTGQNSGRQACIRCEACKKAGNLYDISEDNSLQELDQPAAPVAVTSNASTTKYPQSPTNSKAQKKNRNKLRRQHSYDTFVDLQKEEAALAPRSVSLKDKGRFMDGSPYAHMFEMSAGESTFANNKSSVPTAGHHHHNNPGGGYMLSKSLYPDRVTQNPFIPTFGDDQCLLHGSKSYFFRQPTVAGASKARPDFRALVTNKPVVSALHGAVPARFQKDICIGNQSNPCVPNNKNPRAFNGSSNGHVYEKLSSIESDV

T1 sequence (O15229 whole entry): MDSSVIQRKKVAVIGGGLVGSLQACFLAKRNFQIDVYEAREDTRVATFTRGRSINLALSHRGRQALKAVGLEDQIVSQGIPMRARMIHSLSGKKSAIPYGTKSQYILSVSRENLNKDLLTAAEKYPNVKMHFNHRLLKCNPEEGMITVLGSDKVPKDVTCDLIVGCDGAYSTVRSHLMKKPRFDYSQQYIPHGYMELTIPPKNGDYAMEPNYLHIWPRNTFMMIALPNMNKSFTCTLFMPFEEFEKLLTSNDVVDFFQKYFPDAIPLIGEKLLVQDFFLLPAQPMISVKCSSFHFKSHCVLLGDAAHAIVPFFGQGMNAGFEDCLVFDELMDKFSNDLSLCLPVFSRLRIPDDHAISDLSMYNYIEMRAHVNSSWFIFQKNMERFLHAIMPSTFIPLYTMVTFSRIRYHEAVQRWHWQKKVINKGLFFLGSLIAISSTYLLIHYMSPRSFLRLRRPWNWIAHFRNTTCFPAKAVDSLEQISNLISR

| SMILES | inhibition at 10 µM (KMO) | 3-OH-KYN in striatum [2] | AA in striatum [2] | KYN in striatum [2] | KYNA in striatum [2] | QA in striatum [2] | further results |
| --- | --- | --- | --- | --- | --- | --- | --- |
| CC[C@H](C)Oc1ccc(-c2cc(C(=O)O)ncn2)cc1Cl [Compound 4, (S)-6-(4-sec-butoxy-3-chlorophenyl)pyrimidine-4-carboxylic acid] | 100% |  |  |  |  |  |  |
| CC[C@@H](C)Oc1ccc(-c2cc(C(=O)O)ncn2)cc1Cl [Compound 5, (R)-6-(4-sec-butoxy-3-chlorophenyl)pyrimidine-4-carboxylic acid] | 100% |  |  |  |  |  |  |
| O=C(O)c1cc(-c2ccc(OC3CC3)c(Cl)c2)ncn1 [Compound 6, 6-(3-chloro-4-cyclopropoxyphenyl)pyrimidine-4-carboxylic acid] | 100% | blocks | increases | increases | increases | blocks | 3-HK in striatum extracellular space [1]: insufficient modulation; also recorded: little or no effect; AA in striatum extracellular space [1]: dose dependent increases; KYN in striatum extracellular space [1]: dose dependent increases; KYNA in striatum extracellular space [1]: dose dependent increases; KP metabolite KYNA in striatum, HD mice (KP metabolite KYNA; Q175_KI homozygous (HD) mice): dose dependent increase; also recorded: increases; KP metabolite KYNA in striatum, WT mice (KP metabolite KYNA; wild type mice): dose dependent increase; also recorded: increases |
| O=C(O)c1cccnc1C(=O)O [QUIN, quinolinic acid] |  |  |  |  |  |  | affinity for NR2A subunit [3]: 7 to 10 µmol; affinity for NR2B subunit [4]: 100 µmol |
| Nc1ccccc1C(=O)CC(N)C(=O)O (stereo not drawn) [kynurenine, reference compound] |  | increases | little or no effect | little or no effect | little or no effect | increases |  |
